Data on one compound can be found in patent US20070225240A1, “Screening Assay and Treatment” (priority 2003, published 2007).

Like-named read-outs stand apart in the source and are kept apart here.

Experiment [1] has as its system ASPP2. As to conditions: cells treated with UO126, cell line not stated.
For experiment [2], the system named is ASPP2. As to conditions: MCF7, 20% FCS and EGF, cycloheximide 50 μg/ml, with versus without UO126. As to the method:
(§1) Wild-type ASPP2 (A) or mutant ASPP2 (S827A) (B) were transfected in Saos2 cells in the presence or absence of H-rasv12. 16 hours after transfection, the cells were treated with cycloheximide (50 μg/ml) and lysates were made at the times indicated after cycloheximide treatment. The expression of ASPP2 and H-rasV12 were detected with antibodies V5 or HA, respectively. Actin was used as a loading control. (C) MCF7 cells were starved of serum for 24 hours in 0.5% FCS before treatment with 50 μg/ml cycloheximide (CHX) and 20% FCS and EGF, in the presence (right panel) or absence (left panel) of UO126 for the times indicated. 4 mg of lysate was immunoprecipitated with anti-ASPP2 antibody DX54.10 and the presence of ASPP2 was detected by Western blot with the polyclonal ASPP2/77 antibody (top lanes). Phosphorylated MAPK was detected with phospho-specific MAPK antibody and the total MAPK was detected with a MAPK antibody. The intensity of the. ASPP2 protein immunoprecipitated was quantified and the bands at 0 hours of CHX addition was set as 100 for both cells, as shown by the graph (right panel). (D) MDA Panc3 cells were treated with 50 μg/ml cycloheximide, 20 μM UO126 or both cycloheximide and UO126 for the times indicated. The lysate was resolved on SDS-PAGE gels and ASPP1 and ASPP2 protein levels were detected with mAbASPP1.54.2 and DX54.10 antibodies, respectively, and Mcl-1 was detected with an anti-Mcl1 polyclonal antibody.
(§2) Cells were either transfected with the appropriate expression plasmids or treated with 20 ng/ml EGF and 20 μM UO126 as indicated, the day prior to cycloheximide treatment. Cycloheximide was added to cells at a final concentration of 50 μg/ml in the appropriate medium. Cells were harvested and lysed at the time points indicated.

The next experiment relates to ASPP1 and ASPP2. The procedure: as §1, §2
The test system of experiment [3] is transactivation function of p53. The experiment is described as follows: Transactivation assay, bax-luciferase reporter, Saos2 cells. It is filed as cell-based. The conditions noted are these: EGF 20 ng/ml + 20% FCS, UO126 20 μM. As to the method:
FIG. 27 Endogenous MAPK is necessary for ASPP1 and ASPP2 to stimulate the activity of p53. (A) Saos2 cells were co-transfected with bax-luciferase, ASPP2 and p53. After transfection, medium containing EGF (20 ng/ml) and 20% FCS were added to the cells, in the presence or absence of the MAPK inhibitor UO126 (20 μM). The negative control contained an equal volume of DMSO. […] (B) The putative MAPK phosphorylation sites of ASPP1 and ASPP2 were mutated to alanine, to generate ASPP1 (S671A), ASPP1 (S746), ASPP2 (S698A) and ASPP2 (S827A). Wild-type and mutant ASPP2 (B) or ASPP1 (C) were co-transfected with p53 and Bax-luciferase reporter in the presence or absence of RafCX (B) or K-rasV12 (C) in Saos2 cells, as indicated. Expression levels of ASPP1, p53 and K-rasV12 are shown in the right panel. PCNA was used as a loading control. The graph represents the fold over p53 and ASPP1 or ASPP2 taken from three independent experiments. FCS, foetal calf serum; EGF, epidermal growth factor; and
Saos2 cells (7×10^5) were plated 24 hours prior to transfection in 6-cm-diameter dishes. All transactivation assays contained 1 μg of reporter plasmid. […] The fold increase of p53 and ASPP by HRasV12/K-RasV12/RafCX was determined by the activity of p53 and ASPP in combination with RasV12/RafCX divided by the activity of p53 and ASPP alone.

The mark [4] stands for this setting: MDA Panc3, cycloheximide 50 μg/ml + UO126 20 μM compared to cycloheximide alone.

As to `N#CC(=C(/N)Sc1ccccc1N)/C(C#N)=C(/N)Sc1ccccc1N` [UO126], in the experiment with ASPP2 [1], the ASPP2 protein levels entry is reported as “decrease in ASPP2 protein levels”. Moreover, the ASPP2 protein levels entry in the experiment with ASPP2 [2] is listed as “significantly decreased”. In the experiment with ASPP1 and ASPP2 (setting [4]), the ASPP1 expression levels entry was “significantly decreased” and the ASPP2 expression levels result is “significantly decreased”. Moreover, the “Mcl-1 stability (control)” value with ASPP1 and ASPP2 (MDA Panc3, cycloheximide, presence or absence of UO126) was “no difference in its stability”. The “transactivation function of p53 when ASPP2 was present” value in experiment [3] (p53 + ASPP2) was “significantly inhibited”. Also, the “transactivation function of p53 alone” value in experiment [3] (p53 without ASPP2) was “small effect”.
